Consider five molecules from patent US9980943B2, “Methods of treating muscular dystrophy” (BOARD OF REGENTS OF THE NEVADA SYSTEM OF HIGHER EDUCATION, …, priority 2013, dated 2018).

Holding throughout (assay type): cell-based, mouse
Assay [1] deals with β-galactosidase in CMV-LacZ C2C12 myotubes. Kind of assay: CMV-LacZ secondary screen in C2C12 myotubes (β-Gal stabilizing assay). Conditions: for CMV-LACZ in Myotubes, signal relative to DMSO: C2C12 CMV-LacZ myotubes, fold relative to DMSO; for CMV-LACZ in Myotubes, value relative to DMSO: SU9516 analogs, C2C12 CMV-LacZ, N=2. In a few lines:
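β-Gal level was the read-out, measured in a clonal C2C12 line expressing LacZ from a CMV promoter. Dose-response curves used six concentrations, 0.5 μM up to 40 μM, with duplicate points.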

The subject of assay [2] is β-galactosidase in CMV-LacZ C2C12 myoblasts. Kind of assay: CMV-LacZ secondary screen in C2C12 myoblasts (β-Gal stabilizing assay). Conditions: for CMV-LACZ in Myoblasts (β-galactosidase activity relative to DMSO): CMV-LacZ C2C12 myoblasts; for CMV-LACZ in Myoblasts, value relative to DMSO: SU9516 analogs, C2C12 CMV-LacZ, N=2. In a few lines:
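First, C2C12 myoblasts were transfected with a linearized CMV-LACZ vector and clonal lines selected by FDG β-gal assay. Then cells were exposed to compounds at 0.5, 1, 5, 10, 20 and 40 μM in 96-well format, two replicates each, and β-gal measured.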

Assay [3] relates to α7 integrin (LacZ reporter in α7βgal+/− myoblasts). Kind of assay: Myoblast α7+/LacZ integrin FDG assay (Burkin assay in myoblasts, 96-well). Conditions: 96-well; for Burkin Assay in Myoblasts, signal relative to DMSO: α7+/LacZ myoblasts; for Burkin Assay in Myoblasts, value relative to DMSO: SU9516 analogs, N=3-6.
In assay [4] the test system is α7 integrin (LacZ reporter in α7+/LacZ myotubes). Description: Myotube α7 integrin FDG assay (Burkin assay in myotubes, 96-well). Conditions: for Burkin Assay in Myotubes, value relative to DMSO: SU9516 analogs, 96-well, N=3-6.

Consider `NS(=O)(=O)c1ccc(NC(=O)CN2CCc3ccccc32)cc1` [MLS000850522-01], for which the “CMV-LACZ in Myotubes, signal relative to DMSO” value in assay [1] (0.5 uM) came to 0.8848; in assay [1] (1 uM) it was 0.8933; in assay [1] (5 uM), 1.1090; in assay [1] (10 uM) it was 1.0751; in assay [1] (20 uM), 1.0580; in assay [1] (40 uM), 1.0200. Also, the “CMV-LACZ in Myoblasts (β-galactosidase activity relative to DMSO)” value in assay [2] (0.5 uM) is 0.8880; in assay [2] (1 uM), 1.3763; in assay [2] (5 uM) it was 0.8809; in assay [2] (10 uM), 0.8671; in assay [2] (20 uM) it was 0.8358; in assay [2] (40 uM), 1.0091. For the same molecule, the “Burkin Assay in Myoblasts, signal relative to DMSO” value is 0.7993 in assay [3] (0.5 uM); 0.9332 in assay [3] (1 uM); 1.307 in assay [3] (5 uM); 1.003 in assay [3] (10 uM); 0.8743 in assay [3] (20 uM); 0.8805 in assay [3] (40 uM). Moreover, the “Burkin Assay in Myotubes, α7 integrin LacZ reporter signal relative to DMSO” value in assay [4] (0.5 uM) is 0.9439; in assay [4] (1 uM), 0.9058; in assay [4] (5 uM) it was 1.11; in assay [4] (10 uM) it was 0.9263; in assay [4] (20 uM), 0.9416; in assay [4] (40 uM) it was 0.9324.

On to `CN1CCN(c2ccccc2/C=C2/C(=O)Nc3ccccc32)CC1` [MLS001182377-01], for which the “CMV-LACZ in Myotubes, value relative to DMSO” value was determined as 0.7762 in assay [1] (0.5 uM); 0.8105 in assay [1] (1 uM); 0.9608 in assay [1] (5 uM); 1.0589 in assay [1] (10 uM); 1.0305 in assay [1] (20 uM); 1.0263 in assay [1] (40 uM). In addition, the “CMV-LACZ in Myoblasts, value relative to DMSO” value in assay [2] (0.5 uM) turned out to be 1.1229; in assay [2] (1 uM), 1.1646; in assay [2] (5 uM), 0.9113; in assay [2] (10 uM), 0.9294; in assay [2] (20 uM), 0.4441; in assay [2] (40 uM), 0.4170. Further, the “Burkin Assay in Myoblasts, value relative to DMSO” value in assay [3] (0.5 uM) was 1.179; in assay [3] (1 uM) it was 1.045; in assay [3] (5 uM), 0.915; in assay [3] (10 uM) it was 0.9061; in assay [3] (20 uM), 0.8744; in assay [3] (40 uM), 0.6176. In addition, the “Burkin Assay in Myotubes, value relative to DMSO” value in assay [4] (0.5 uM) is on record as 1.015; in assay [4] (1 uM) it was 1.021; in assay [4] (5 uM), 0.9372; in assay [4] (10 uM), 0.9389; in assay [4] (20 uM) it was 0.8654; in assay [4] (40 uM), 0.9149.

`Cn1ccc(C(=O)Nc2cccnc2Cl)n1` [MLS001147478-01]: the “CMV-LACZ in Myotubes, signal relative to DMSO” value in assay [1] (0.5 uM) is on record as 1.3536; in assay [1] (1 uM), 1.3827; in assay [1] (5 uM) it was 0.8937; in assay [1] (10 uM), 1.2959; in assay [1] (20 uM) it was 1.0810; in assay [1] (40 uM), 0.9510. Also, the “CMV-LACZ in Myoblasts (β-galactosidase activity relative to DMSO)” value in assay [2] (0.5 uM) is 1.0721; in assay [2] (1 uM), 0.8808; in assay [2] (5 uM), 1.2105; in assay [2] (10 uM) it was 1.2999; in assay [2] (20 uM) it was 1.0513; in assay [2] (40 uM), 0.8747. In addition, the “Burkin Assay in Myoblasts, signal relative to DMSO” value in assay [3] (0.5 uM) was 1.142; in assay [3] (1 uM), 1.091; in assay [3] (5 uM) it was 1.0569; in assay [3] (10 uM) it was 1.192; in assay [3] (20 uM) it was 0.9651; in assay [3] (40 uM), 0.8215. Besides, the “Burkin Assay in Myotubes, α7 integrin LacZ reporter signal relative to DMSO” value in assay [4] (0.5 uM) stood at 1.076; in assay [4] (1 uM), 0.9677; in assay [4] (5 uM), 0.9933; in assay [4] (10 uM) it was 1.041; in assay [4] (20 uM) it was 0.8876; in assay [4] (40 uM) it was 0.8744.

Turning to `Cc1ccc2c(c1)/C(=C/c1ccccc1F)C(=O)N2` [MLS001202330-01], the “CMV-LACZ in Myotubes, value relative to DMSO” value was 0.8314 in assay [1] (0.5 uM); 0.9562 in assay [1] (1 uM); 0.9600 in assay [1] (5 uM); 0.8717 in assay [1] (10 uM); 0.9168 in assay [1] (20 uM); 0.8242 in assay [1] (40 uM). For the same molecule, the “CMV-LACZ in Myoblasts, value relative to DMSO” value in assay [2] (0.5 uM) came to 0.7417; in assay [2] (1 uM), 0.9325; in assay [2] (5 uM), 1.0099; in assay [2] (10 uM), 0.9082; in assay [2] (20 uM) it was 0.9511; in assay [2] (40 uM), 0.7619. Also, the “Burkin Assay in Myoblasts, value relative to DMSO” value came out at 0.9738 in assay [3] (0.5 uM); 1.028 in assay [3] (1 uM); 0.9558 in assay [3] (5 uM); 0.9341 in assay [3] (10 uM); 0.8305 in assay [3] (20 uM); 0.6468 in assay [3] (40 uM). In addition, the “Burkin Assay in Myotubes, value relative to DMSO” value came to 0.9709 in assay [4] (0.5 uM); 0.9174 in assay [4] (1 uM); 0.9123 in assay [4] (5 uM); 1.017 in assay [4] (10 uM); 0.6303 in assay [4] (20 uM); 0.6207 in assay [4] (40 uM).

As for `COC(=O)Cn1c(=O)c2c(nc3n2CC(C)CN3Cc2ccccc2)n(C)c1=O` (stereo not drawn) [MLS001166758-01], the “CMV-LACZ in Myotubes, signal relative to DMSO” value is on record as 0.9958 in assay [1] (0.5 uM); 0.7474 in assay [1] (1 uM); 0.9780 in assay [1] (5 uM); 0.9444 in assay [1] (10 uM); 1.1044 in assay [1] (20 uM); 0.9867 in assay [1] (40 uM). In addition, the “CMV-LACZ in Myoblasts (β-galactosidase activity relative to DMSO)” value amounted to 0.9357 in assay [2] (0.5 uM); 1.0175 in assay [2] (1 uM); 1.1998 in assay [2] (5 uM); 1.0661 in assay [2] (10 uM); 0.6126 in assay [2] (20 uM); 0.3481 in assay [2] (40 uM). For the same molecule, the “Burkin Assay in Myoblasts, signal relative to DMSO” value was 0.824 in assay [3] (0.5 uM); 0.7394 in assay [3] (1 uM); 0.9736 in assay [3] (5 uM); 0.8245 in assay [3] (10 uM); 0.7275 in assay [3] (20 uM); 0.6174 in assay [3] (40 uM). The “Burkin Assay in Myotubes, α7 integrin LacZ reporter signal relative to DMSO” value stood at 1.0327 in assay [4] (0.5 uM); 1.027 in assay [4] (1 uM); 0.9857 in assay [4] (5 uM); 0.8979 in assay [4] (10 uM); 0.9856 in assay [4] (20 uM); 0.8754 in assay [4] (40 uM).
